Results as given in the NIST ThermoML archive (doi:10.1021/je050001c).

Conditions: 101.33 kPa, Liquid; for viscosity: Falling or rolling sphere viscometry

CC/C=C\CCOC(=O)C(C)C [cis-3-hexenyl isobutyrate]
Conditions | mass density [kg/m3] | viscosity [mPa·s]
293.15 K | 885.08 | 1.024
298.15 K | 878.12 | 0.941
303.15 K | 873.61 | 0.868
308.15 K | 870.34 | 0.804
313.15 K | 865.22 | 0.741
318.15 K | 861.49 | 0.69
323.15 K | 857.38 | 0.65
328.15 K | 852.44 | 0.606
333.15 K | 848.44 | 0.56
338.15 K | 845.31 | 0.535
343.15 K | 840.09 | 0.503

CCCCOC(C)=O [butyl ethanoate]
Conditions | mass density [kg/m3] | viscosity [mPa·s]
293.15 K | 881.04 | 0.732
298.15 K | 876.45 | 0.677
303.15 K | 871.3 | 0.628
308.15 K | 866.25 | 0.585
313.15 K | 861.84 | 0.546
318.15 K | 857.32 | 0.512
323.15 K | 854.61 | 0.481
328.15 K | 850.78 | 0.453
333.15 K | 847.92 | 0.428
338.15 K | 844.39 | 0.405
343.15 K | 841.77 | 0.384

CCOC(=O)CC [ethyl propanoate]
Conditions | mass density [kg/m3] | viscosity [mPa·s]
293.15 K | 891.62 | 0.523
298.15 K | 884.1 | 0.492
303.15 K | 879.31 | 0.464
308.15 K | 874.12 | 0.441
313.15 K | 870.61 | 0.418
318.15 K | 867.34 | 0.398
323.15 K | 864.33 | 0.378
328.15 K | 860.89 | 0.36
333.15 K | 858.14 | 0.344
338.15 K | 856.81 | 0.329
343.15 K | 853.48 | 0.315

CC(=O)OCCC(C)C [3-methylbutyl ethanoate]
Conditions | mass density [kg/m3] | viscosity [mPa·s]
293.15 K | 878.24 | 0.888
298.15 K | 876.01 | 0.827
303.15 K | 875.94 | 0.773
308.15 K | 873.1 | 0.724
313.15 K | 870.15 | 0.678
318.15 K | 867.32 | 0.638
323.15 K | 864.31 | 0.601
328.15 K | 860.14 | 0.567
333.15 K | 857.98 | 0.536
338.15 K | 854.05 | 0.507
343.15 K | 851.07 | 0.481

CC/C=C\CCOC(C)=O [(Z)-3-hexenyl acetate]
Conditions | mass density [kg/m3] | viscosity [mPa·s]
293.15 K | 900.82 | 0.893
298.15 K | 897.14 | 0.823
303.15 K | 893.14 | 0.763
308.15 K | 890.28 | 0.708
313.15 K | 886.19 | 0.66
318.15 K | 881.43 | 0.616
323.15 K | 877.89 | 0.576
328.15 K | 875.21 | 0.542
333.15 K | 871.43 | 0.509

CCCC(=O)OCC [ethyl butanoate]
Conditions | mass density [kg/m3] | viscosity [mPa·s]
293.15 K | 876.91 | 0.662
298.15 K | 874.42 | 0.62
303.15 K | 870.13 | 0.583
308.15 K | 866.21 | 0.549
313.15 K | 864.31 | 0.519
318.15 K | 861.32 | 0.491
323.15 K | 858.43 | 0.465
328.15 K | 854.44 | 0.442
333.15 K | 853.89 | 0.42
338.15 K | 851.32 | 0.4
343.15 K | 850.04 | 0.382

CCOC(=O)C(C)CC (stereo unspecified) [ethyl 2-methylbutanoate]
Conditions | mass density [kg/m3] | viscosity [mPa·s]
293.15 K | 869.73 | 0.831
298.15 K | 865 | 0.774
303.15 K | 861.48 | 0.723
308.15 K | 857.88 | 0.677
313.15 K | 853.41 | 0.635
318.15 K | 849.32 | 0.597
323.15 K | 846.74 | 0.563
328.15 K | 841.59 | 0.532
333.15 K | 838.41 | 0.503
338.15 K | 835.48 | 0.476
343.15 K | 831.46 | 0.452

CCOC=O [ethyl methanoate]
Conditions | mass density [kg/m3] | viscosity [mPa·s]
293.15 K | 917.82 | 0.402
298.15 K | 912.06 | 0.381
303.15 K | 907.68 | 0.362
308.15 K | 899.54 | 0.345
313.15 K | 891.5 | 0.329
318.15 K | 887.41 | 0.314
323.15 K | 882.14 | 0.3

CCCCCC(=O)OCC [ethyl hexanoate]
Conditions | mass density [kg/m3] | viscosity [mPa·s]
293.15 K | 879.01 | 0.816
298.15 K | 872.53 | 0.757
303.15 K | 869.31 | 0.704
308.15 K | 866.74 | 0.656
313.15 K | 863.28 | 0.614
318.15 K | 860.19 | 0.576
323.15 K | 856.42 | 0.541
328.15 K | 851.93 | 0.509
333.15 K | 847.88 | 0.482
338.15 K | 845.32 | 0.456
343.15 K | 841.46 | 0.429
